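Grown in 96-well plates, cells were treated for 48 hours with each compound at five concentrations. Insufficient inhibition: endpoint recorded as highest concentration tested. The concentration for full growth arrest is given as TGI.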
Experiments:
Assay in all cases: growth of human tumour cells (NCI), 48 h
[1] = test system: DMS 273 small cell lung
[2] = test system: OVCAR-4 ovarian
[3] = test system: M19-MEL melanoma
[4] = test system: 786-0 renal
[5] = test system: SK-MEL-2 melanoma
[6] = test system: SR leukemia
[7] = test system: UACC-62 melanoma
[8] = test system: ACHN renal
[9] = test system: SW-620 colon
[10] = test system: DMS 114 small cell lung
[11] = test system: OVCAR-3 ovarian
[12] = test system: SF-268 CNS
[13] = test system: KM12 colon
[14] = test system: K-562 leukemia
[15] = test system: HOP-92 NSCLC
[16] = test system: OVCAR-8 ovarian
[17] = test system: U251 CNS
[18] = test system: RXF 393 renal
[19] = test system: NCI-H460 lung
[20] = test system: HT29 colon
[21] = test system: IGROV1 ovarian
[22] = test system: OVCAR-5 ovarian
[23] = test system: HCT-15 colon
[24] = test system: SK-OV-3 ovarian
[25] = test system: A549 NSCLC
[26] = test system: UACC-257 melanoma
[27] = test system: SF-295 CNS
[28] = test system: HOP-62 NSCLC
[29] = test system: LOX IMVI melanoma
[30] = test system: UO-31 renal
[31] = test system: DLD-1 colon
[32] = test system: SNB-75 CNS
[33] = test system: HOP-18 NSCLC
[34] = test system: CAKI-1 renal
[35] = test system: HL-60(TB) leukemia
[36] = test system: MALME-3M melanoma
[37] = test system: SK-MEL-28 melanoma
[38] = test system: SK-MEL-5 melanoma
[39] = test system: SNB-78 CNS
[40] = test system: HCT-116 colon
[41] = test system: RPMI-8226 leukemia
[42] = test system: NCI-H226 lung
[43] = test system: SF-539 CNS
[44] = test system: COLO 205 colon
[45] = test system: CCRF-CEM leukemia
[46] = test system: NCI-H522 lung
[47] = test system: SN12C renal
[48] = test system: KM20L2 colon
[49] = test system: MOLT-4 leukemia
[50] = test system: A498 renal
[51] = test system: TK-10 renal
[52] = test system: NCI-H23 lung
[53] = test system: M14 melanoma
[54] = test system: LXFL 529 NSCLC
[55] = test system: XF 498 CNS
[56] = test system: SNB-19 CNS
[57] = test system: EKVX NSCLC
[58] = test system: HCC-2998 colon

SMILES: O=Cc1c(O)ccc2ccc(O)c(-c3c(O)ccc4ccc(O)cc34)c12
- TGI [1]: > 100 µM
- TGI [2]: > 100 µM
- TGI [3]: > 100 µM
- TGI [4]: > 100 µM
- TGI [5]: > 100 µM
- TGI [6]: > 100 µM
- TGI [7]: > 100 µM
- TGI [8]: > 100 µM
- TGI [9]: > 100 µM
- TGI [10]: > 100 µM
- TGI [11]: > 100 µM
- TGI [12]: > 100 µM
- TGI [13]: > 100 µM
- TGI [14]: > 100 µM
- TGI [15]: > 100 µM
- TGI [16]: > 100 µM
- TGI [17]: > 100 µM
- TGI [18]: > 100 µM
- TGI [19]: > 100 µM
- TGI [20]: > 100 µM
- TGI [21]: > 100 µM
- TGI [22]: > 100 µM
- TGI [23]: > 100 µM
- TGI [24]: > 100 µM
- TGI [25]: > 100 µM
- TGI [26]: > 100 µM
- TGI [27]: > 100 µM
- TGI [28]: > 100 µM
- TGI [29]: > 100 µM
- TGI [30]: > 100 µM
- TGI [31]: > 100 µM
- TGI [32]: > 100 µM
- TGI [33]: > 100 µM
- TGI [34]: > 100 µM
- TGI [35]: > 100 µM
- TGI [36]: > 100 µM
- TGI [37]: > 100 µM
- TGI [38]: > 100 µM
- TGI [39]: > 100 µM
- TGI [40]: > 100 µM
- TGI [41]: > 100 µM
- TGI [42]: 95.1 µM
- TGI [43]: > 100 µM
- TGI [44]: > 100 µM
- TGI [45]: > 100 µM
- TGI [46]: > 100 µM
- TGI [47]: > 100 µM
- TGI [48]: > 100 µM
- TGI [49]: > 100 µM
- TGI [50]: > 100 µM
- TGI [51]: > 100 µM
- TGI [52]: > 100 µM
- TGI [53]: > 100 µM
- TGI [54]: > 100 µM

SMILES: O=C1C(Cl)C(c2cc(Br)cc(Br)c2O)N1n1cnc2ccccc2c1=O (stereo not drawn)
- TGI [1]: > 100 µM
- TGI [2]: 43.1 µM
- TGI [3]: 62.2 µM
- TGI [4]: > 100 µM
- TGI [5]: 46.7 µM
- TGI [6]: 35.1 µM
- TGI [7]: 49.3 µM
- TGI [8]: > 100 µM
- TGI [9]: > 100 µM
- TGI [55]: 61.2 µM
- TGI [11]: 79.4 µM
- TGI [56]: 89.3 µM
- TGI [57]: 85.9 µM
- TGI [12]: > 100 µM
- TGI [13]: 92.5 µM
- TGI [14]: 71.5 µM
- TGI [16]: 94.9 µM
- TGI [17]: 31.8 µM
- TGI [18]: 63.7 µM
- TGI [19]: > 100 µM
- TGI [20]: > 100 µM
- TGI [21]: 70.7 µM
- TGI [22]: 71.8 µM
- TGI [23]: > 100 µM
- TGI [24]: 42.3 µM
- TGI [25]: > 100 µM
- TGI [26]: 45.3 µM
- TGI [27]: 54.2 µM
- TGI [28]: > 100 µM
- TGI [29]: 30.4 µM
- TGI [30]: 76.1 µM
- TGI [31]: > 100 µM
- TGI [58]: > 100 µM
- TGI [32]: 85.6 µM
- TGI [33]: 83.8 µM
- TGI [34]: 88.3 µM
- TGI [35]: 48 µM
- TGI [36]: 62.9 µM
- TGI [37]: 70.5 µM
- TGI [38]: 35.6 µM
- TGI [39]: > 100 µM
- TGI [40]: 36.2 µM
- TGI [41]: 37.4 µM
- TGI [42]: 61.8 µM
- TGI [44]: 93.2 µM
- TGI [45]: 49.5 µM
- TGI [46]: 49.1 µM
- TGI [47]: 91.2 µM
- TGI [48]: > 100 µM
- TGI [49]: 30.1 µM
- TGI [51]: > 100 µM
- TGI [52]: 86.3 µM
- TGI [53]: 42.2 µM
- TGI [54]: > 100 µM
